Experimental data published in patent US20050107430A1, “Antimicrobial and antiviral compounds” (priority 2003, published 2005).
Values after ≈ are worked out from the molar mass of the structure shown. “Also recorded” adds a separate entry of the source. Marks after values point to notes of the source that are not given here.

Columns and labels:
Mycobacterium fortutium = test: MIC, Mycobacterium fortutium; type: cell-based; conditions: Table 3
[1] = test system: VRE (Vancomycin resistant Enterococci); test: NCCLS MIC/MBC microdilution, VRE; conditions: for MIC, VRE enterococcus (E. faecalis): Table 3, 24 h and 48 h same results
Experimental: (§2) Standard NCCLS (e.g., National Committee for Clinical Laboratory Standards) methods for determining MIC (e.g., minimum inhibitory concentration) and MBC (e.g., minimum bactericidal concentration) were used. 96 well micro-well plates were placed in a humid chamber and frozen at −70° C. [BBL Mueller Hinton Broth]. Drugs (e.g., antimicrobial compounds of the present invention) were added to a series of wells through 2 fold serial dilutions. 100 μl of a 2×10^−3 M solution of the respective Tx compounds was added to the first well in a series. 100 μl of the inoculum (e.g., microorganism) was added to the well. […] For example, the concentration in well 8 would be less than the concentration of the same drug in well 7. Inoculum (e.g., microorganism) that was added to the wells was prepared from 24 hour growth of an isolate on 5% sheep blood/Columbia agar plates. 5 to 10 representative colonies were then picked from the plates and added to saline and adjusted to 0.5 McFarland turbidity. Next the sample was diluted 1:100 in saline, such that 100 μl of the diluted sample contained approximately 1×10^5 microbes. 100 μl of the diluted sample was added to each well in a series of drug concentrations. Once the cells were added to the wells, the well plates were incubated at 35° C. without CO2 for 48 hrs and at this time the minimum bactericidal concentration was determined.
(§3) The MIC of Tx-118, Tx-147, and Tx-197 for certain Staphylococcus aureus (MRSA), Pseudomonas aeruginosa, Stenotrophomonas maltophilia, and VRE Enterococcus faecalis was determined using standard NCCLS methods. The first well in each series of decreasing drug concentrations contained 1×10^−4 M of a drug. The drug was diluted by serial two fold dilutions through all 12 wells in a series. There was a final DMSO concentration of 2% in the first well and 1% in the second well, etc. Tests with Tx-118 and Tx-197 were performed in triplicate, and tests with Tx-147 were performed in duplicate.

[2] = test system: MRSA (oxacillin/methicillin resistant S. aureus); test: NCCLS MIC/MBC microdilution, MRSA; conditions: for MIC, MRSA (methicillin resistant): Table 3, 24 h and 48 h same results
Experimental: as §2, §3

P. aeruginosa = test: NCCLS MIC/MBC microdilution, P. aeruginosa; set-up: MIC: key to the marks not given beside the values; conditions: for MIC, P. aeruginosa: Table 3, P. aeroginosa is L13 from Table 2
[3] = test system: Stenotrophomonas maltophilia; test: NCCLS MIC/MBC microdilution, S. maltophilia; conditions: for MIC, Stenotrophomonas maltophilia: Table 3, 24 h and 48 h same results
Experimental: as §2, §3

E. coli ATCC 25922 = test: NCCLS MIC/MBC microdilution, E. coli; type: cell-based; conditions: plate EC
Excerpt: (§1) [BBL Mueller Hinton Broth].

Enterococcus faecium = test: NCCLS MIC/MBC microdilution, Enterococcus (vancomycin sensitive); type: cell-based
Excerpt: as §1

S. aureus = test: NCCLS MIC/MBC microdilution, S. aureus patient isolates; type: cell-based, Staphylococcus aureus
Excerpt: as §1

human fibroblasts = test: Toxicity study with human fibroblasts; type: cell-based
BDF1′ mice = conditions: 30 mg/kg ip
various microorganisms = test: Antimicrobial activity tests, various microorganisms; conditions: Example 1 microbes
[4] = test system: chloroquin (CQ) resistant strain of Plasmodium falciparum (Pf); test: In vitro efficacy against chloroquin resistant Plasmodium falciparum; type: cell-based; conditions: for IC50: CQ resistant P. falciparum, in vitro, triplicate
Experimental: Tx-5 and Tx-84 were tested for in vitro efficacy against a chloroquin (CQ) resistant strain of Plasmodium falciparum (Pf). The tests were performed in triplicate at a wide variety of concentrations and evaluated for effect compared with CQ.

M. avium intracellularie = test: MIC, M. avium intracellularie; type: cell-based, Mycobacterium avium intracellulare; conditions: Table 3
[5] = test system: Mycobacterium tuberculosis; conditions: Table 3

Compound: CC(=O)c1cc2c3ccccc3ccc2c2ccc(NC(=O)CCC(=O)N3CCN(C)CC3)cc12 [Tx-118, N-(12′-acetyl, 2′-chrysenyl)-4-(4′N methyl-piperazinyl)-butane-1,4-dicarboxiamide]
- MIC, Mycobacterium fortutium (Mycobacterium fortutium): No activity
- MIC, VRE enterococcus (E. faecalis) [1]: No activity
- MIC, MRSA (methicillin resistant) [2]: No activity
- MIC, P. aeruginosa (P. aeruginosa): No activity
- MIC, Stenotrophomonas maltophilia [3]: No activity

Compound: O=C(CCC(=O)N1CCCCC1)Nc1cc2c(c3ccccc13)-c1ccc3ccccc3c1C2 [Tx-38]
- MIC (E. coli ATCC 25922): +++
- MIC (Enterococcus faecium; plate E348, Enterococcus faecium patient isolate): +++
- MIC (Enterococcus faecium; plate E502, Enterococcus faecium ATCC 502806): +++
- MIC (Enterococcus faecium; plate E523, Enterococcus facium patient isolate): +++
- MIC (S. aureus; plate S332, S aureus patient isolate): +++
- MIC (S. aureus; plate S520, S aureus patient isolate penicillin resistant): +++
- Toxicity/human fibroblasts (IC50) (human fibroblasts): 12 ug/ml human fibroblasts
- animal studies (ip), mortality (BDF1′ mice): 30 mg/kg (no mort)
- MIC, VRE enterococcus (E. faecalis) [1]: No activity
- MIC ([1]; plate D4, VRE patient isolate): +++
- MIC, MRSA (methicillin resistant) [2]: No activity
- MIC ([2]; plate A1, MRSA patient isolate): +++^a
- MIC ([2]; plate B2, MRSA patient isolate): +++
- MIC ([2]; plate E5, MRSA patient isolate): +++
- MIC ([2]; plate F6, MRSA patient isolate): +++
- MIC ([2]; plate G7, MRSA patient isolate): +++
- MIC ([2]; plate H9, MRSA patient isolate): +++
- MIC ([2]; plate K12, MRSA patient isolate): +++
- MIC, P. aeruginosa (P. aeruginosa): No activity
- MIC (P. aeruginosa; plate 37, P. aeruginosa sensitive isolate): +++
- MIC (P. aeruginosa; plate ATCC, P. aeruginosa ATCC 27853): +++
- MIC (P. aeruginosa; plate L13, P. aeruginosaR (multi-resistant)): +++
- MIC, Stenotrophomonas maltophilia [3]: No activity
- MIC ([3]; plate C3, S. maltophilia patient isolate): +++
- MIC ([3]; plate I10, S. maltophilia patient isolate): +++
- MIC ([3]; plate J11, S. maltophilia patient isolate): +++

Compound: CN1CCN(C(=O)CCC(=O)Nc2cc3c4ccccc4c(Br)cc3c3ccccc23)CC1 [Tx-9, N-(12′-bromo, 6′-chrysenyl)-4-(4′N methyl-piperazinyl)-butane-1,4-dicarboxiamide]
- growth in wells (activity) (various microorganisms): +3 growth (e.g., no activity)

Compound: c1ccc2c(c1)c(NCCCCN1CCCCC1)cc1c3ccccc3c(NCCCCN3CCCCC3)cc21 [Tx-84]
- IC50 [4]: 91 nM
- inhibitory effect against Pf ([4]; in words): significant inhibitory effect; also recorded: greater than that of CQ
- MIC, VRE enterococcus (E. faecalis) [1]: 4 to 33 µg/mL
- MIC, MRSA (methicillin resistant) [2]: 16 µg/mL (≈ 29.8 µM)
- MIC, P. aeruginosa (P. aeruginosa): No activity

Compound: O=C(CCC(=O)N1CCCCC1)Nc1ccc2c(ccc3c4ccccc4ccc23)c1 [Tx-4, N-(2′-chrysenyl)-4-(1′-piperidinyl)-butane-1,4-dicarboxiamide]
- MIC, M. avium intracellularie (M. avium intracellularie): .82 µg/mL (≈ 2 µM)
- MIC, Mycobacterium tuberculosis [5]: .1 µg/mL (≈ 0.244 µM)

Compound: O=C(CCC(=O)N1CCCCC1)Nc1ccc2c(c1)c(Br)cc1c3ccccc3ccc21 [Tx-12, N-(12′-bromo, 2′-chrysenyl)-4-(1′-piperidinyl)-butane-1,4-dicarboxiamide]
- growth in wells (activity) (various microorganisms): +3 growth (e.g., no activity)

Compound: CN1CCN(C(=O)CCC(=O)Nc2ccc3c(c2)c(Br)cc2c4ccccc4ccc32)CC1 [Tx-10, N-(12′-bromo, 2′-chrysenyl)-4-(4′N methyl-piperazinyl)-butane-1,4-dicarboxiamide]
- growth in wells (activity) (various microorganisms): +3 growth (e.g., no activity)

Compound: CCN(CC)CCCC(C)Nc1ccnc2cc(Cl)ccc12 (stereo not drawn) [CQ, chloroquin, reference compound]
- IC50 [4]: 606 nM
